Where a name gives a salt, the structure may show the parent alone.
Key:
thoracic aorta = experiment: Vasorelaxant effect on isolated vessels (rat thoracic aorta rings without endothelium, precontracted with noradrenalin); parameters: species or system Wistar rats; conditions: for Emax: Rattus norvegicus, maximum inhibition of noradrenalin effect, 10^-8 to 10^-4 M substance, read-out: Maximum Relaxation; for IC50: rat aorta, 10^-7 M noradrenalin contraction
Experimental: Vasorelaxant effect of the compounds according to the invention on isolated vessels.
Adult Wistar rats weighing between 250 and 350 g are anaesthetised by intraperitoneal injection of sodium pentobarbital (30 mg/kg). The thoracic aorta is rapidly removed and placed in a refrigerated and oxygenated solution of bicarbonate buffer of the Krebs-Ringer type (composition [mM]: NaCl, 118; KCl, 4.7; CaCl2, 2.5; MgSO4, 1.2; KH2 PO4, 1.2; NaHCO3, 25.0; disodium calcium salt of EDTA, 0.026; glucose 11.1). The aorta is dissected with the aim of removing the connective tissue and then cut into 6 rings (length 5-10 mm). The endothelium is removed by moderate abrasion of the intimal surface of the aortic segments with the aid of a pair of tweezers. These segments are then placed between two hooks in an isolated organ cell filled with 25 ml of bicarbonate buffer (pH 7.4), thermostat-controlled at 37° C. and oxygenated with the aid of a 95% O2 /5% CO2 mixture (pH 7.4). One of the hooks is fixed to a fixed point, while the second is connected to a transducer with the aim of measuring the variations in isometric voltage (expressed in grams). After an equilibration period of 30 min., the segments are progressively withdrawn so as to attain the level of base voltage for which the contractor response to noradrenalin (10^-7 M) is maximum (optimum voltage; average 2 g). The absence of endothelium is verified by addition of a single concentration of acetylcholine (10^-6 M), after precontraction of the vessels by noradrenalin (10^-7 M). The integrity of the vascular smooth muscle is also verified by adding a single concentration of a vasodilator whose response is independent of the presence of the endothelium, SIN-1 (10^-5 M). After this initial procedure, the aortas are washed, equilibrated for a period of 30 min and then recontracted (10^-7 M noradrenalin). The relaxant effect of the substance to be tested is then evaluated by adding increasing concentrations of this substance (from 10^-8 to 10^-4 M). The maximum inhibition of the concentration caused by noradrenalin (expressed as a percentage) is then calculated ("maximum relaxation"). When this maximum relaxation is greater than 50%, the concentration of substance tested producing a 50% inhibition of the maximum contraction (IC50) is calculated. Table V below collates the IC50 and the maximum relaxation percentages for the various compounds tested.

anesthetised dogs = experiment: Haemodynamic effects on anesthetised dogs; format: in vivo, dogs (labrador/harrier cross); conditions: dogs
Experimental: Haemodynamic effects of the compounds according to the invention on anesthetised pigs or dogs
The dogs, weighing between 16 and 26 kg, are the progeny of a labrador/harrier cross.
In the case of dogs the anesthesia is induced by sodium pentobarbitol (45 mg/jg i.v.) and maintained with an i.v. perfusion (flow rate of 8 mg/kg/h).
The pigs or dogs are placed under artificial respiration in ambient air. Analysis of the blood gases (pO2, pCO2) is carried out at regular intervals and oxygen can be supplied via the respirator, if necessary.
The haemodynamic parameters recorded include the left ventricular pressure (LVP; Millar PC350 Tip catheter inserted via the carotid artery), systemic blood pressure (BPs, BPd; full catheter in a femoral artery), the end pressure of the left ventricular diastole (LVEDP), the ventricular contractility (LVPdp/dtmax) and the heart rate (HR).
Following an equilibration period of the order of 45 minutes, the compounds studied are administered intraduodenally (i.d.) or intraveinously (i.v.) to several animals (1 to 4). The haemodynamic variables are recorded continuously for 1 to 3 hours, as a function of the period of action of the compound.
The effects of the compounds studied are shown as the absolute difference with respect to the base value (bv) measured before administration of the compounds and are shown in Table VII (a,b,c).
An antianginal activity is estimated by a fall in the BPs and the LVEDP (fall in venous return).

SMILES | Emax (thoracic aorta) | IC50 (thoracic aorta) | BPs (min), period of action (anesthetised dogs; 3 mg/kg i.v.) | BPs, difference to base value (anesthetised dogs; 3 mg/kg i.v.) | LVEDP (min), period of action (anesthetised dogs; 3 mg/kg i.v.) | LVEDP, difference to base value (anesthetised dogs; 3 mg/kg i.v.) | BPs (min), period of action (anesthetised dogs; 3 mg/kg i.d.) | BPs, difference to base value (anesthetised dogs; 3 mg/kg i.d.) | LVEDP (min), period of action (anesthetised dogs; 3 mg/kg i.d.) | LVEDP, difference to base value (anesthetised dogs; 3 mg/kg i.d.) | BPs (min), period of action (anesthetised dogs; 10 mg/kg i.v.) | BPs, difference to base value (anesthetised dogs; 10 mg/kg i.v.) | LVEDP (min), period of action (anesthetised dogs; 10 mg/kg i.v.) | LVEDP, difference to base value (anesthetised dogs; 10 mg/kg i.v.)
CC(C)(C)OC(=O)NCC(=O)O[C@H]1CO[C@H]2[C@@H]1OC[C@H]2O[N+](=O)[O-] [Compound 1, N-[(t-Butoxy)carbonyl]glycine ester of 5-O-nitro-1,4:3,6-dianhydro-D-glucitol] | 83% | 32 µM | 10 min | 5 mmHg | 10 min | 1,0 mmHg |  |  |  |  |  |  |  | 
NCC(=O)O[C@H]1CO[C@H]2[C@@H]1OC[C@H]2O[N+](=O)[O-] [Compound 2, Glycine ester of 5-O-nitro-1,4:3,6-dianhydro-D-glucitol monohydrochloride] | 52% | 100 µM | > 120 min | -10 mmHg | > 120 min | -1,0 mmHg |  |  |  |  |  |  |  | 
NCC(=O)O[C@@H]1CO[C@H]2[C@@H]1OC[C@@H]2O[N+](=O)[O-] [Compound 3, Glycine ester of 2-O-nitro-1,4:3,6-dianhydro-D-glucitol monohydrochloride] | 63% | 79 µM |  |  |  |  | > 60 min | -10 mmHg | > 60 min | -4,5 mmHg |  |  |  | 
C[C@H](NC(=O)OC(C)(C)C)C(=O)N[C@H]1CO[C@H]2[C@@H]1OC[C@@H]2O[N+](=O)[O-] [Compound 7, N-[(t-Butoxy)carbonyl]-L-alanine amide of 5-amino-5-deoxy-2-O-nitro-1,4:3,6-dianhydro-L-iditol] | 96% | 17 µM | > 90 min | -20 mmHg | > 90 min | -2,0 mmHg |  |  |  |  |  |  |  | 
C[C@H](N)C(=O)N[C@H]1CO[C@H]2[C@@H]1OC[C@@H]2O[N+](=O)[O-] [Compound 8, L-Alanine amide of 5-amino-5-deoxy-2-O-nitro-1,4:3,6-dianhydro-L-iditol monohydrochloride] | 80% | 32 µM |  |  |  |  | > 150 min | -30 mmHg |  |  |  |  |  | 
CC(C)[C@H](NC(=O)OC(C)(C)C)C(=O)N[C@H]1CO[C@H]2[C@@H]1OC[C@@H]2O[N+](=O)[O-] [Compound 9, N-[(t-Butoxy)carbonyl]-L-valine amide of 5-amino-5-deoxy-2-O-nitro-1,4:3,6-dianhydro-L-iditol] | 70% | 80 µM |  |  |  |  | > 60 min | 5 mmHg | 0 min | 0,0 mmHg |  |  |  | 
CC(C)(C)OC(=O)N[C@@H](Cc1ccccc1)C(=O)N[C@H]1CO[C@H]2[C@@H]1OC[C@@H]2O[N+](=O)[O-] [Compound 11, N-[(t-Butoxy)carbonyl]-L-phenylalanine amide of 5-amino-5-deoxy-2-O-nitro-1,4:3,6-dianhydro-L-iditol] | 100% | 25 µM | > 30 min | -10 mmHg | 0 min | 0,0 mmHg |  |  |  |  |  |  |  | 
N[C@@H](Cc1ccccc1)C(=O)N[C@H]1CO[C@H]2[C@@H]1OC[C@@H]2O[N+](=O)[O-] [Compound 12, L-phenylalanine amide of 5-amino-5-deoxy-2-O-nitro-1,4:3,6-dianhydro-L-iditol monohydrochloride] | 100% | 2.5 µM |  |  |  |  | > 240 min | -30 mmHg |  |  |  |  |  | 
CC(C)(C)OC(=O)N1CCC[C@H]1C(=O)N[C@H]1CO[C@H]2[C@@H]1OC[C@@H]2O[N+](=O)[O-] [Compound 13, N-[(t-Butoxy)carbonyl]-L-proline amide of 5-amino-5-deoxy-2-O-nitro-1,4:3,6-dianhydro-L-iditol] | 74% | 49 µM |  |  |  |  | > 120 min | -30 mmHg |  |  |  |  |  | 
O=C(N[C@H]1CO[C@H]2[C@@H]1OC[C@@H]2O[N+](=O)[O-])[C@@H]1CCCN1 [Compound 14, L-Proline amide of 5-amino-5-deoxy-2-O-nitro-1,4:3,6-dianhydro-L-iditol monohydrochloride] | 98% | 14 µM | > 90 min | -10 mmHg | > 90 min | -2,0 mmHg |  |  |  |  |  |  |  | 
CC(C)(C)OC(=O)NCC(=O)N[C@H]1CO[C@H]2[C@@H]1OC[C@H]2O[N+](=O)[O-] [Compound 15, N-[(t-Butoxy)carbonyl]glycine amide of 2-amino-2-deoxy-5-O-nitro-1,4:3,6-dianhydro-D-glucitol] | 58% | 60 µM |  |  |  |  | > 180 min | -20 mmHg | > 180 min | -3,0 mmHg |  |  |  | 
NCC(=O)N[C@H]1CO[C@H]2[C@@H]1OC[C@H]2O[N+](=O)[O-] [Compound 16, Glycine amide of 2-amino-2-deoxy-5-O-nitro-1,4:3,6-dianhydro-D-glucitol monohydrochloride] | 41% | > 100 µM |  |  |  |  |  |  |  |  | > 30 min | -5 mmHg | > 30 min | -1,0 mmHg
CC(C)(C)OC(=O)N1CSC[C@H]1C(=O)O[C@H]1CO[C@H]2[C@@H]1OC[C@H]2O[N+](=O)[O-] [Compound 18, 2-O-[(3-t-Butoxycarbonyl-4-L-thiazolidinyl)carbonyl]-5-O-nitro-1,4:3,6-dianhydro-D-glucitol] | 75% | 72 µM |  |  |  |  |  |  |  |  | > 30 min | -10 mmHg | > 30 min | 3,0 mmHg
O=C(O[C@H]1CO[C@H]2[C@@H]1OC[C@H]2O[N+](=O)[O-])[C@@H]1CSCN1 [Compound 19, 2-O-[(4-L-Thiazolidinyl)carbonyl]-5-O-nitro-1,4:3,6-dianhydro-D-glucitol monohydrochloride] | 40% | > 100 µM |  |  |  |  |  |  |  |  | > 60 min | -35 mmHg | 0 min | 0,0 mmHg
CC(=O)NCSC[C@H](N)C(=O)O[C@H]1CO[C@H]2[C@@H]1OC[C@H]2O[N+](=O)[O-] [Compound 21, S-[(Acetylamino)methyl]-L-cysteine ester of 5-O-nitro-1,4:3,6-dianhydro-D-glucitol monohydrochloride] | 31% | 100 µM |  |  |  |  | > 60 min | -5 mmHg | > 60 min | -2,0 mmHg |  |  |  | 
CC(C)(C)OC(=O)N1CSC[C@H]1C(=O)O[C@@H]1CO[C@H]2[C@@H]1OC[C@@H]2O[N+](=O)[O-] [Compound 24, 5-O-[(3-t-Butoxycarbonyl-4-L-thiazolidinyl)carbonyl]-2-O-nitro-1,4:3,6-dianhydro-D-glucitol] | 100% | 20 µM | > 30 min | -10 mmHg | 10 min | 1,0 mmHg |  |  |  |  |  |  |  | 
O=C(N[C@H]1CO[C@H]2[C@@H]1OC[C@H]2O[N+](=O)[O-])c1ccccc1SCc1ccccc1 [Compound 45] |  |  | > 120 min | -10 mmHg | 0 min | 0,0 mmHg |  |  |  |  |  |  |  | 

From patent US5591758A, “Organic nitrates, processes for their preparation and their use in the treatment of cardiovascular diseases” (Laboratoires Hoechst, SA, priority 1991, dated 1997)
